The experiment has as its target HSD17B13 (Homo sapiens (Human), UniProt Q7Z5P4). Put plainly: LC/MS estrone detection assay: conversion of estradiol to estrone by HSD17B13. It counts as biochemical. The settings on record: 4 μM estradiol, 6 mM NAD+, 30 nM HSD17B13 enzyme (E. coli expressed His-tagged), 2 hours at 26.5° C. In short, it runs like this: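 His-tagged E. coli-expressed HSD17B13 (30 nM) with 4 μM estradiol and 6 mM NAD+ in 1 M potassium phosphate pH 7.4, 0.5% DMSO, 2 h at 26.5° C. Estrone and estradiol quantified by LC-MS/MS after MeCN quench with D4-estrone internal standard; activity as % of uninhibited enzyme, IC50 by four-parameter fit, duplicates.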

Molecules are shown by their SMILES. pIC50: −log10 of the molar value. Counter-ions that a name gives are not always drawn.

Chain of HSD17B13 (Q7Z5P4 20-300): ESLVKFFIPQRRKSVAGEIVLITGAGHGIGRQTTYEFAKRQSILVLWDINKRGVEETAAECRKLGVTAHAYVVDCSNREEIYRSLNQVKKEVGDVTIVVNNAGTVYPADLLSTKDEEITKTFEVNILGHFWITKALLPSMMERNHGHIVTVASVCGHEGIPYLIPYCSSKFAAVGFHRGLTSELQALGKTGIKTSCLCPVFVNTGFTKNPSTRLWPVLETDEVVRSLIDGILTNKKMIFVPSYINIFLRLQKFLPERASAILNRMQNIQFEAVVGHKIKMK

The term pIC50 denotes the negative decadic logarithm of the IC50, by convention in mol/L. Higher therefore signals a low IC50. Consider `O=C(Nc1cccc2ncn(Cc3cccnc3)c(=O)c12)c1cc(Cl)c(O)c(Cl)c1` [Example 80, 3,5-dichloro-4-hydroxy-N-(4-oxo-3-(pyridin-3-ylmethyl)-3,4-dihydroquinazolin-5-yl)benzamide], for which the pIC50 is 6.00 to 6.30.
As for `O=C(Nc1ccc(Cl)c2ncn(Cc3ccccc3OC(F)(F)F)c(=O)c12)c1cc(Cl)c(O)c(Cl)c1` [Example 81, 3,5-dichloro-N-(8-chloro-4-oxo-3-(2-(trifluoromethoxy)benzyl)-3,4-dihydroquinazolin-5-yl)-4-hydroxybenzamide], the figure is at least 7.00; as for `O=C(Nc1cccc2ncn(Cc3cccnc3C(F)(F)F)c(=O)c12)c1cc(Cl)c(O)c(Cl)c1` [Example 82, 3,5-dichloro-4-hydroxy-N-(4-oxo-3-((2-(trifluoromethyl)pyridin-3-yl)methyl)-3,4-dihydroquinazolin-5-yl)benzamide], at least 7.00.
Under `O=C(Nc1cccc2ncn(Cc3ccccc3N3CCS(=O)(=O)CC3)c(=O)c12)c1cc(Cl)c(O)c(Cl)c1` [Example 83, 3,5-dichloro-N-(3-(2-(1,1-dioxidothiomorpholino)benzyl)-4-oxo-3,4-dihydroquinazolin-5-yl)-4-hydroxybenzamide] stands 5.00 to 6.00.
Under `O=C(Nc1cccc2ncn(Cc3ccccc3N3CCOCC3)c(=O)c12)c1cc(Cl)c(O)c(Cl)c1` [Example 84, 3,5-dichloro-4-hydroxy-N-(3-(2-morpholinobenzyl)-4-oxo-3,4-dihydroquinazolin-5-yl)benzamide] stands at least 7.00.
`CN(C)CCOc1ccc(NC(=O)c2cc(Cl)c(O)c(Cl)c2)c(C(=O)NCc2ccccc2OC(F)(F)F)c1` [Example 85, 3,5-dichloro-N-(4-(2-(dimethylamino)ethoxy)-2-((2-(trifluoromethoxy)benzyl)carbamoyl)phenyl)-4-hydroxybenzamide]: the pIC50 is under 5.00.
Under `O=C(Nc1ccc(OCCO)cc1C(=O)NCc1ccccc1OC(F)(F)F)c1cc(Cl)c(O)c(Cl)c1` [Example 86, 3,5-dichloro-4-hydroxy-N-(4-(2-hydroxyethoxy)-2-((2-(trifluoromethoxy)benzyl)carbamoyl)phenyl)benzamide] stands 6.30 to 7.00; under `O=C(Nc1cccc2ncn(Cc3cccnc3OC(F)(F)F)c(=O)c12)c1cc(Cl)c(O)c(Cl)c1` [Example 87, 3,5-dichloro-4-hydroxy-N-(4-oxo-3-((2-(trifluoromethoxy)pyridin-3-yl)methyl)-3,4-dihydroquinazolin-5-yl)benzamide], 6.30 to 7.00.
The compound `Cc1ccc(NC(=O)c2cc(Cl)c(O)c(Cl)c2)c2c(=O)n(Cc3ccccc3OC(F)(F)F)cnc12` [Example 88, 3,5-dichloro-4-hydroxy-N-(8-methyl-4-oxo-3-(2-(trifluoromethoxy)benzyl)-3,4-dihydroquinazolin-5-yl)benzamide] had a negative-log IC50 (pIC50) of at least 7.00.
As for `Cc1ccc(NC(=O)c2cc(Cl)c(O)c(Cl)c2)c2c(=O)n(Cc3ccccc3OC(F)(F)F)c(C)nc12` [Example 89, 3,5-dichloro-N-(2,8-dimethyl-4-oxo-3-(2-(trifluoromethoxy)benzyl)-3,4-dihydroquinazolin-5-yl)-4-hydroxybenzamide], the figure is at least 7.00; as for `O=C(Nc1ccc(Cl)c2ncn(Cc3ccccc3OC(F)(F)F)c(=O)c12)c1cc(Cl)c(O)c(Cl)n1` [Example 90, 4,6-dichloro-N-(8-chloro-4-oxo-3-(2-(trifluoromethoxy)benzyl)-3,4-dihydroquinazolin-5-yl)-5-hydroxypicolinamide], 6.30 to 7.00.
As for `Cc1ccc(NC(=O)c2cc(Cl)c(O)c(Cl)n2)c2c(=O)n(Cc3ccccc3OC(F)(F)F)cnc12` [Example 91, 4,6-dichloro-5-hydroxy-N-(8-methyl-4-oxo-3-(2-(trifluoromethoxy)benzyl)-3,4-dihydroquinazolin-5-yl)picolinamide], the figure is 6.30 to 7.00; as for `O=C(Nc1ccnc2ncn(Cc3ccccc3OC(F)(F)F)c(=O)c12)c1cc(Cl)c(O)c(Cl)c1` [Example 92, 3,5-dichloro-4-hydroxy-N-(4-oxo-3-(2-(trifluoromethoxy)benzyl)-3,4-dihydropyrido[2,3-d]pyrimidin-5-yl)benzamide], 6.30 to 7.00; as for `Cn1c(=O)n(Cc2ccccc2OC(F)(F)F)c(=O)c2c(NC(=O)c3cc(Cl)c(O)c(Cl)c3)cccc21` [Example 93, 3,5-dichloro-4-hydroxy-N-(1-methyl-2,4-dioxo-3-(2-(trifluoromethoxy)benzyl)-1,2,3,4-tetrahydroquinazolin-5-yl)benzamide], at least 7.00.
Under `Cc1ccc2ncn(Cc3ccccc3OC(F)(F)F)c(=O)c2c1NC(=O)c1cc(Cl)c(O)c(Cl)c1` [Example 94, 3,5-dichloro-4-hydroxy-N-(6-methyl-4-oxo-3-(2-(trifluoromethoxy)benzyl)-3,4-dihydroquinazolin-5-yl)benzamide] stands 6.30 to 7.00; under `O=C(Nc1ccnc2[nH]c(=O)n(Cc3ccccc3OC(F)(F)F)c(=O)c12)c1cc(Cl)c(O)c(Cl)c1` [Example 95, 3,5-dichloro-N-(2,4-dioxo-3-(2-(trifluoromethoxy)benzyl)-1,2,3,4-tetrahydropyrido[2,3-d]pyrimidin-5-yl)-4-hydroxybenzamide], 6.30 to 7.00.
In the case of `Cc1nc2nccc(NC(=O)c3cc(Cl)c(O)c(Cl)c3)c2c(=O)n1Cc1ccccc1OC(F)(F)F` [Example 96, 3,5-dichloro-4-hydroxy-N-(2-methyl-4-oxo-3-(2-(trifluoromethoxy)benzyl)-3,4-dihydropyrido[2,3-d]pyrimidin-5-yl)benzamide], the negative-log IC50 (pIC50) was at least 7.00.
In the case of `O=C(Nc1csc2ncn(Cc3ccccc3)c(=O)c12)c1cc(Cl)c(O)c(Cl)c1` [Example 97, N-(3-benzyl-4-oxo-3,4-dihydrothieno[2,3-d]pyrimidin-5-yl)-3,5-dichloro-4-hydroxybenzamide], the negative-log IC50 (pIC50) is 6.30 to 7.00.
`O=C(Nc1csc2ncn(Cc3ccccc3)c(=O)c12)c1cc(Cl)c(O)c(Cl)n1` [Example 98, N-(3-benzyl-4-oxo-3,4-dihydrothieno[2,3-d]pyrimidin-5-yl)-4,6-dichloro-5-hydroxypicolinamide] showed a pIC50 of 6.30 to 7.00.
Under `Cn1nc(NC(=O)c2cc(Cl)c(O)c(Cl)c2)c2c(=O)n(Cc3ccccc3)cnc21` [Example 99, N-(5-benzyl-1-methyl-4-oxo-4,5-dihydro-1H-pyrazolo[3,4-d]pyrimidin-3-yl)-3,5-dichloro-4-hydroxybenzamide] stands 5.00 to 6.00; under `O=C(Nc1cccc2ncn(Cc3cnn4ccccc34)c(=O)c12)c1cc(Cl)c(O)c(Cl)c1` [Example 100, 3,5-dichloro-4-hydroxy-N-(4-oxo-3-(pyrazolo[1,5-a]pyridin-3-ylmethyl)-3,4-dihydroquinazolin-5-yl)benzamide], 6.30 to 7.00; under `O=C(Nc1cccc2nc(C(F)(F)F)n(C3CC3c3ccccc3)c(=O)c12)c1cc(Cl)c(O)c(Cl)n1` (stereo not shown) [Example 101, 4,6-dichloro-5-hydroxy-N-(4-oxo-3-(2-phenylcyclopropyl)-2-(trifluoromethyl)-3,4-dihydroquinazolin-5-yl)picolinamide], 5.00 to 6.00.
Under `O=C(Nc1csc2ncn(Cc3ccccc3OC(F)(F)F)c(=O)c12)c1cc(Cl)c(O)c(Cl)c1` [Example 103, 3,5-dichloro-4-hydroxy-N-(4-oxo-3-(2-(trifluoromethoxy)benzyl)-3,4-dihydrothieno[2,3-d]pyrimidin-5-yl)benzamide] stands 6.30 to 7.00; under `O=C(Nc1csc2ncn(Cc3ccccc3OC(F)(F)F)c(=O)c12)c1cc(Cl)c(O)c(Cl)n1` [Example 104, 4,6-dichloro-5-hydroxy-N-(4-oxo-3-(2-(trifluoromethoxy)benzyl)-3,4-dihydrothieno[2,3-d]pyrimidin-5-yl)picolinamide], 6.30 to 7.00.
As for `Cn1ccc(-c2ccccc2Cn2cnc3cccc(NC(=O)c4cc(Cl)c(O)c(Cl)c4)c3c2=O)n1` [Example 105, 3,5-dichloro-4-hydroxy-N-(3-(2-(1-methyl-1H-pyrazol-3-yl)benzyl)-4-oxo-3,4-dihydroquinazolin-5-yl)benzamide], the figure is 6.30 to 7.00.
With `NS(=O)(=O)c1ccccc1Cn1cnc2cccc(NC(=O)c3cc(Cl)c(O)c(Cl)c3)c2c1=O` [Example 106, 3,5-dichloro-4-hydroxy-N-(4-oxo-3-(2-sulfamoylbenzyl)-3,4-dihydroquinazolin-5-yl)benzamide], the pIC50 is under 5.00.
As for `Cn1nc(NC(=O)c2cc(Cl)c(O)c(Cl)n2)c2c(=O)n(Cc3ccccc3)cnc21` [Example 107, N-(5-benzyl-1-methyl-4-oxo-4,5-dihydro-1H-pyrazolo[3,4-d]pyrimidin-3-yl)-4,6-dichloro-5-hydroxypicolinamide], the figure is 6.00 to 6.30.
As for `O=C(Nc1cccc2ncn([C@@H]3C[C@H]3c3ccccc3)c(=O)c12)c1cc(Cl)c(O)c(Cl)n1` [Example 108, 4,6-dichloro-5-hydroxy-N-(4-oxo-3-((1R,2S)-2-phenylcyclopropyl)-3,4-dihydroquinazolin-5-yl)picolinamide TFA Salt], the figure is 6.00 to 6.30; as for `O=C(Nc1cccc2ncn([C@H]3C[C@@H]3c3ccccc3)c(=O)c12)c1cc(Cl)c(O)c(Cl)n1` [Example 109, 4,6-dichloro-5-hydroxy-N-(4-oxo-3-((1S,2R)-2-phenylcyclopropyl)-3,4-dihydroquinazolin-5-yl)picolinamide], 5.00 to 6.00.
As for `O=C(Nc1cccc2ncn(Cc3ccccc3-c3ccccn3)c(=O)c12)c1cc(Cl)c(O)c(Cl)n1` [Example 110, 4,6-dichloro-5-hydroxy-N-(4-oxo-3-(2-(pyridin-2-yl)benzyl)-3,4-dihydroquinazolin-5-yl)picolinamide], the pIC50 was 6.30 to 7.00.
Under `Cc1ccc(NC(=O)c2cc(Cl)c(O)c(Cl)c2)c2c(=O)n(Cc3ccccc3OC(F)(F)F)c(C(F)(F)F)nc12` [Example 112, 3,5-dichloro-4-hydroxy-N-(8-methyl-4-oxo-3-(2-(trifluoromethoxy)benzyl)-2-(trifluoromethyl)-3,4-dihydroquinazolin-5-yl)benzamide] stands 6.30 to 7.00.

Source of the values: patent publication US20230278981A1, “DICHLOROPHENOL HSD17B13 INHIBITORS AND USES THEREOF” (INIPHARM, INC., priority 2020, published 2023).
